According to ChEMBL document CHEMBL1201862, “PubChem BioAssay data set” (2004):
Structures can show the parent of a compound that is named as a salt. Activity calls are given as the source filed them.

Columns and labels:
cells [1] = format: functional, cell-based
[2] = Luminescence-based dose response cell-based high throughput screening assay for cytotoxic compounds using the IEC-6 intestinal epithelial cell line. [Related pubchem assays: 1858 (Summary AID.), 1825 (Counterscreen.), 1907 (Confirmation screen.)]; format: functional
[3] = Trypanosoma cruzi growth suppression in host cells – NIH3T3 host cells, beta-gal luminescence, confirmation (AID 2044); format: functional, cell-based;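 also: intracellular parasites grown in NIH/3T3 mouse fibroblasts as host cells; luminescent beta-galactosidase reporter signal from transgenic T. cruzi replicating inside host cells; inhibitors lower the luminescence signal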
INS1 = experiment: INS-1E survival protection against cytokine death – cell-based, luminescence, retest, dose response (AID 449756); format: functional; conditions: Rattus norvegicus;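 also: cell death triggered by IL-1 beta plus TNF-alpha plus IFN-gamma mixture; protective hits raise ATP signal compared with cytokine alone wells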
[4] = HGIII-sPLA2 enzyme inhibition potency – biochemical, QFRET, IC50, dose response (AID 743457);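 also: green fluorescence rise as the enzyme cleaves BODIPY PC-A2 in liposomes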
Albumin = Albumin (Bos taurus, UniProt P02769); experiment: Counterscreen for inhibitors of T-cell receptor (TCR)-CD3 interaction: Fluorescence-based biochemical high throughput dose response assay to identify inhibitors of T-cell receptor (TCR)-CD3 interaction using a TAMRA-labeled BSA probe.; format: functional
Chain of Albumin (P02769 whole entry): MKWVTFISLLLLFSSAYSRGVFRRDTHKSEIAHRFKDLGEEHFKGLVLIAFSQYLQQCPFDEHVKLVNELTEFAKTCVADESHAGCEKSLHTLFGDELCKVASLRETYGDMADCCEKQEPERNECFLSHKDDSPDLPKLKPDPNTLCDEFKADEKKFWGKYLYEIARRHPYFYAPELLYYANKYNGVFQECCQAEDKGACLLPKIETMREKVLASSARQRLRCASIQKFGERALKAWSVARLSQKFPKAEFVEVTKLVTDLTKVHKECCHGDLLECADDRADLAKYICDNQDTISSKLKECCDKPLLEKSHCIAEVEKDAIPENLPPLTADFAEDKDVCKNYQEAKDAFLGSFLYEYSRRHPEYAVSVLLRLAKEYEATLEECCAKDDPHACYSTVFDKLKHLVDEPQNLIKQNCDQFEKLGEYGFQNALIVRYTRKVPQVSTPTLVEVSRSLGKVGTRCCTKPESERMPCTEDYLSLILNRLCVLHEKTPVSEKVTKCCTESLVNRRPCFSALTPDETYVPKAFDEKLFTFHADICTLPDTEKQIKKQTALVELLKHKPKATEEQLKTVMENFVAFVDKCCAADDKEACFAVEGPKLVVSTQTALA

[5] = NIH3T3 cell viability loss – ATP luminescence, mouse fibroblasts, counter-screen, dose response (AID 2010); format: functional, cell-based;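 also: cells exposed to compound for about 90 hours before reading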
cells [6] = format: functional, cell-based; remark: listed apart in the source
[7] = Dd2 malaria parasite growth inhibition potency – SYBR Green, dry powder samples, dose response (AID 1159566); format: functional, cell-based;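 also: potency for growth inhibition with lower SYBR green DNA signal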
[8] = toxicity to human HepG2 hepatoma cells – cell-based, plate reader, dry powder samples, cytotoxicity control, dose response (AID 1159569); format: functional;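 also: inhibitor potency with signal falling toward the positive control level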
[9] = growth inhibition of yeast DHODH-expressing 3D7 parasites – SYBR Green, dry powder samples, dose response (AID 1159570); format: functional, cell-based;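 also: parasite growth measured after 72 hours of compound exposure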
[10] = P. falciparum Dd2 growth inhibitors, dose response, SYBR Green, cherry-picked samples (AID 1159567); format: functional, cell-based
[11] = growth inhibition of PfATP4-mutant resistant parasites – NITD609-resistant line, SYBR Green, dry powder, dose response (AID 1159571); format: functional, cell-based;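 also: parasites synchronized at ring stage by sorbitol before testing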
[12] = target: Endoplasmic reticulum aminopeptidase 1 (Homo sapiens, UniProt Q9NZ08); experiment: inhibition of human ERAP1 enzyme activity – biochemical, cherry-pick, set 2, plate reader, dose response (AID 743314)
Chain of Endoplasmic reticulum aminopeptidase 1 (Q9NZ08 whole entry): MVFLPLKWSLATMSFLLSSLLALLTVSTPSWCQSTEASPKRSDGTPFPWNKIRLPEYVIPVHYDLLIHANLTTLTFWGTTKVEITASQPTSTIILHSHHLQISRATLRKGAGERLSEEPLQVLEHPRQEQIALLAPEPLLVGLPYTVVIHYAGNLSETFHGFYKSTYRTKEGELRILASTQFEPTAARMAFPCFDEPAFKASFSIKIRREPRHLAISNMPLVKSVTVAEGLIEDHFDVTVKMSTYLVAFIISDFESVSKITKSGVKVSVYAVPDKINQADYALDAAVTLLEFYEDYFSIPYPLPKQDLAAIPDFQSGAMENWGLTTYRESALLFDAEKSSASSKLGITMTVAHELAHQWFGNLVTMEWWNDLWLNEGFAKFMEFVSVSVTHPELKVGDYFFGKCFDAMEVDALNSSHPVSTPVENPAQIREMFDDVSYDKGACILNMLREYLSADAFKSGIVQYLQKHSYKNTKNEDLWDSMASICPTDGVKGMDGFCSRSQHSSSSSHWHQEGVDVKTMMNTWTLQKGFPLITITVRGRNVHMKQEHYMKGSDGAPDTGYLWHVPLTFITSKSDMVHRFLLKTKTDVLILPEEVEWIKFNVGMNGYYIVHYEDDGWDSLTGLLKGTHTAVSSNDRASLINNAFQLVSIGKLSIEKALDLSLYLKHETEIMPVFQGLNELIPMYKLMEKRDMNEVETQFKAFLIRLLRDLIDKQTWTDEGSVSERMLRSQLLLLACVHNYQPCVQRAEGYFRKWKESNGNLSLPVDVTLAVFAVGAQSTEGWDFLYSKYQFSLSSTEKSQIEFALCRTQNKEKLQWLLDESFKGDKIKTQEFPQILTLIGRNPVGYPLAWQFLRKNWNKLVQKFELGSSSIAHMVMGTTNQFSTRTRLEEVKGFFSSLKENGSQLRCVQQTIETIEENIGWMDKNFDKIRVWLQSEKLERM

[13] = target: COUP transcription factor 2 (Homo sapiens, UniProt P24468); experiment: Luminescence-based cell-based high throughput dose response assay to identify inhibitors of COUP-TFII (NR2F2).; format: functional;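 also: HEK293 cells transiently cotransfected with COUP-TFII expression vector and reporter; luciferase reporter luminescence driven by COUP-TFII from the pX2-168 reporter plasmid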
Chain of COUP transcription factor 2 (P24468 whole entry): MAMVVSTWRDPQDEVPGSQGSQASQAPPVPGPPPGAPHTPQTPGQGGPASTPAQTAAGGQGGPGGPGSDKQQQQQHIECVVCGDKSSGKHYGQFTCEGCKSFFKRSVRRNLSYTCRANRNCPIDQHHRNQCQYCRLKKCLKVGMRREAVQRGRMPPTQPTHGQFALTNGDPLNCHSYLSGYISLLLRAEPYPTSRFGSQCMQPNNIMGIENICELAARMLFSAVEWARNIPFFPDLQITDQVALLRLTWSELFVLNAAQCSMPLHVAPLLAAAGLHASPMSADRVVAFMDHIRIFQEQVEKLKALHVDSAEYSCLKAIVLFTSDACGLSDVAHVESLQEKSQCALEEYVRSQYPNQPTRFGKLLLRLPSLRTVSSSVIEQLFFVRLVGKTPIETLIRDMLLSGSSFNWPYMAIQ

[14] = T. cruzi growth inhibition in host cells, dose response, cell-based, plate reader, dry powder, set 2 (AID 652275); format: functional
cells [15] = format: functional, cell-based; conditions: INS-1E
[16] = IC50 of insulin release inhibition, rat insulinoma INS-1E line, 5 mM glucose, cell-based (AID 1117331); format: functional
[17] = lung carcinoma cell viability loss – CellTiter-Glo luminescence, dry powder, set 17, dose response (AID 1117284); format: functional, cell-based; conditions: A549
[18] = inhibitors of non-replicating M. tuberculosis, dose response, luciferase, dry powder (AID 651619); format: functional; conditions: Mycobacterium tuberculosis
[19] = inhibitors of non-replicating M. tuberculosis, dose response, luciferase, dry powder (AID 651620); format: functional; conditions: Mycobacterium tuberculosis
[20] = microbe, parasite or virus in culture; format: functional; conditions: Mycobacterium tuberculosis
[21] = viability loss of HPDE-C7K cells – cell-based, fluorescence, HTS, primary screen (AID 431); format: functional; conditions: Homo sapiens
[22] = HPDE-C7 pancreatic duct cell viability loss – fluorescence, HTS (AID 430); format: functional, cell-based; conditions: Homo sapiens

C/C(=N\NC(=O)c1nnn(-c2nonc2N)c1-c1ccccc1)c1ccccc1O
EC50 (cells [1]): 113 µM (active) | IC50 [2]: 1.19 µM (active) | EC50 [3]: 0.617 µM (active) | AC50 (INS1): 0.353 µM (active) | IC50 [4]: > 122 µM (inactive) | IC50 (Albumin): > 94.1 µM (inactive) | EC50 [5]: 3.76 µM (active) | EC50 (cells [6]): 58.5 µM (active)

CN(C)C(=O)c1ccc(-c2cccc(-c3nc(C(=O)NC4CCCC4)cc4c3[C@H](CCO)N([S@@+]([O-])C(C)(C)C)C4)c2)cc1
AC50 [7]: 0.768 µM (active) | AC50 [8]: 30.5 µM (active) | AC50 [9]: 1.14 µM (active) | AC50 [10]: 1.99 µM (active) | AC50 [11]: 1.03 µM (active)

CCC(=O)N1[C@H](C(=O)OC)[C@@H](CO)[C@@H]2Cn3c(ccc(/C=C/c4ccccc4)c3=O)[C@@H]21
AC50 [12]: 12.8 µM (active)

Cc1ccc(Cl)cc1S(=O)(=O)N1CCC(C(=O)NC2CCN(Cc3ccccc3)CC2)CC1
IC50 [13]: 12 µM (inactive)

CCCNC(=O)N(C)C[C@@H]1Oc2ncc(-c3ccncc3)cc2C(=O)N([C@H](C)CO)C[C@@H]1C
AC50 [12]: 16.9 µM (active)

C[C@H]1CN([C@@H](C)CO)C(=O)c2cccc(NC(=O)c3ccncc3)c2O[C@@H]1CN(C)Cc1ccc(F)cc1Cl
AC50 [14]: 0.0324 µM (active)

CN(C)CCOC(c1ccc(Cl)cc1)c1ccccn1 (stereo not given) [CARBINOXAMINE MALEATE]
IC50 (cells [15]): > 33.3 µM (inactive) | IC50 [16]: 21.4 µM (inactive)

COc1ccccc1-c1ccc(CN(C)C[C@@H]2Oc3cc(C#C[C@@H](C)O)ccc3S(=O)(=O)N([C@@H](C)CO)C[C@@H]2C)cc1
AC50 [17]: > 52 µM (inactive)

COc1cccc(NC(=O)N2[C@@H](CO)[C@H](c3ccccc3)[C@@H]2CNCC(C)C)c1
AC50 [7]: 0.852 µM (active) | AC50 [8]: 95.4 µM (active) | AC50 [9]: 1.46 µM (active) | AC50 [10]: 2.02 µM (active) | AC50 [11]: 1.66 µM (active)

COc1ccc(CSc2nnc(-c3ccc(Cl)cc3)o2)nc1
IC90 [18]: 2 µM (active) | IC90 [19]: 2 µM (active)

Cc1oc(C(=O)Nc2ccc(O)cc2)cc1COc1ccccc1
CC50 [20]: > 40 µM (active) | EC50 [21]: 13.9 µM (active) | EC50 [22]: 16.6 µM (active)
